Data set [1] in a line: Measurement of absorption spectrum and fluorescence excitation spectrum. Format: physicochemical. Conditions: for maximum absorption wavelength: 1.0 mg/ml, spectrophotometer 200 to 750 nm; for maximum excitation wavelength / maximum fluorescence wavelength: fluorescence spectrophotometer. The protocol: Measurement of an absorption spectrum and a fluorescence excitation spectrum of Fast Green FCF was performed. The Fast Green FCF (Wako Pure Chemical Industries, Ltd.) was adjusted to 1.0 mg/ml, and the light absorbance was continuously measured at a wavelength of from 200 to 750 nm using a spectrophotometer (manufactured by Shimadzu Corp., BioSpec-1600) to determine the wavelength at which the absorbance reached the maximum. The maximum absorption wavelength of 628 nm thus obtained was irradiated as an excitation wavelength, and the wavelength of the scattered light detected in the perpendicular direction to the light axis of the excitation light was measured using a fluorescence spectrophotometer (manufactured by Shimadzu Corp., RF-1500), thus to obtain a maximum excitation wavelength of 628 nm and a maximum fluorescence wavelength of 652 nm.

For data set [2], the system named is esophagus part of a mouse. Put plainly: Extracted esophagus stained, confocal microscope observation. Conditions: 10 mg/mL, pH 7. The protocol:
The esophagus part of a mouse (ddY, 11 weeks old, male) was extracted, stained using Brilliant Blue FCF, and observed with a confocal microscope (Leica Microsystems Corp., TCP-SP2).
The Brilliant Blue FCF used was prepared to 10 mg/mL using a 0.1 M sodium phosphate buffer solution (pH 7).
The imaging conditions were such that the pinhole diameter was 1.00 airy, and a lens of 20 magnifications was used.

The next data set has as its system gastrointestinal lumen. In words: Perfusion through the heart with Guinea Green, observation of a frozen section. The data set is classed as in vivo, mouse. Conditions: 10 mg/mL, 600 μL perfused through the heart. The protocol: The gastrointestinal lumen was stained using Guinea Green, and the stainability was examined by observation of a frozen section.
Guinea Green (Sigma-Aldrich Corp., Guinea Green B) was prepared to 10 mg/mL with physiological saline, and was perfused through the heart of a mouse (ddY, 6 weeks old, male) in an amount of 600 μL.
Also, it was compared with another frozen section used to perform HE staining, and the sites capable of fluorescent observation by Guinea Green staining were characterized.
(§1) A confocal microscope was used for the observation, which was made at 20, 40 or 63 magnifications.

Another data set deals with mouse large intestine. In words: Tissue staining by perfusion method, confocal observation of extracted large intestine specimen. Conditions: 1 mg/mL with physiological saline. The protocol:
IndoCyanine Green (adjusted to 1 mg/mL with physiological saline), which is a medical contrast agent, was used to perform tissue staining. Mouse large intestine was stained by a perfusion method, and observation of an extracted specimen of the large intestine was performed using a confocal microscope (Leica Microsystems Corp., TCP-SP2).

The test system of another data set is large intestine. Put plainly: Perfusion through the heart with Patent Blue, confocal observation of large intestine specimen and frozen section. Format: in vivo, mouse. The protocol:
Patent Blue was used for staining and observation with a confocal microscope. Patent Blue (Sigma-Aldrich Corp., Patent Blue VF) was prepared to 10 mg/mL with physiological saline, and was perfused through the heart of a mouse (ddY, 6 weeks old, male) to perform staining.
The mouse was subjected to laparotomy to extract the large intestine, and an observation was made for a specimen with a confocal system.
The imaging conditions were such that a lens of 20 magnifications was used, and the pinhole diameter was 1.00 airy. As the confocal microscope, TCP-SP2 manufactured by Leica Microsystems Corp. was used.
A frozen section prepared by slicing the mouse large intestine stained in Example 9 to approximately 6 μm was observed under fluorescence to observe the stainability. An adjacent frozen section was used to perform HE staining and was compared to characterize the sites where fluorescent observation was possible by Patent Blue staining.
as §1

`CCN(Cc1cccc(S(=O)(=O)O)c1)c1ccc(C(=C2C=CC(=[N+](CC)Cc3cccc(S(=O)(=O)O)c3)C=C2)c2ccccc2S(=O)(=O)[O-])cc1.N.N` [Alphazurine FG]: in data set [1], the “can be excited at, for example” value is recorded as 633 nm; the fluorescence detected at is reported as 643 nm; the maximum absorption wavelength is 630 nm; the maximum excitation wavelength amounted to 633 nm. The compound also had a maximum fluorescence wavelength in data set [1] of 643 nm.

For the compound `CCN(Cc1cccc(S(=O)(=O)[O-])c1)c1ccc(C(=C2C=CC(=[N+](CC)Cc3cccc(S(=O)(=O)[O-])c3)C=C2)c2ccccc2S(=O)(=O)[O-])cc1.[Na+].[Na+]` [Brilliant Blue FCF], in data set [2], the “fluorescent contrast in confocal images” value was “provide fluorescent contrast for the intercellular space of the esophagus epithelial cells”. Further, the “depth from the luminal surface of clear images” value in data set [2] (images at every 5.0 μm) is “up to 100 μm”. In addition, in data set [1], the “can be excited at, for example” value is 629 nm; the fluorescence detected at was found to be 650 nm; the maximum absorption wavelength is listed as 629 nm; the maximum excitation wavelength is on record as 619 nm. Also, the maximum fluorescence wavelength in data set [1] came out at 650 nm.

`CCN(Cc1cccc(S(=O)(=O)[O-])c1)c1ccc(C(=C2C=CC(=[N+](CC)Cc3cccc(S(=O)(=O)[O-])c3)C=C2)c2ccccc2)cc1.[Na+]` [Guinea Green B]: in the data set on gastrointestinal lumen, the “fluorescence of frozen section” value was “the lumen side exhibited strong fluorescence” and the “observation capability of the confocal system” value is “high”. Moreover, in data set [1], the “can be excited at, for example” value is given as 624 nm; the fluorescence detected at worked out at 635 nm; the maximum absorption wavelength stood at 620 nm; the maximum excitation wavelength came out at 624 nm. For the same compound, the maximum fluorescence wavelength in data set [1] is reported as 635 nm.

With `CC1(C)C(/C=C/C=C/C=C/C=C2\N(CCCCS(=O)(=O)O)c3ccc4ccccc4c3C2(C)C)=[N+](CCCCS(=O)(=O)[O-])c2ccc3ccccc3c21` [IndoCyanine Green, reference compound], the “fluorescence intensity inside the tissue” value with mouse large intestine is “the fluorescence intensity was very low”. Further, in data set [1] (compared with Fast Green FCF, FIG. 2), the “fluorescence intensity (fluorescence spectrum)” value is “the fluorescence intensity is lower than that of the Fast Green FCF”.

Take `CCN(Cc1cccc(S(=O)(=O)O)c1)c1ccc(C(=C2C=CC(=[N+](CC)Cc3cccc(S(=O)(=O)O)c3)C=C2)c2ccc(S(=O)(=O)O)cc2)cc1.[Na+].[Na+]` [Light Green SF]: in data set [1], the “can be excited at, for example” value was found to be 633 nm; the fluorescence detected at is reported as 652 nm; the maximum absorption wavelength worked out at 635 nm; the maximum excitation wavelength turned out to be 633 nm. For the same compound, the maximum fluorescence wavelength in data set [1] was 652 nm.

On to Patent Blue VF, for which the “staining visible by naked eyes” value in the data set with large intestine (10 mg/mL, 600 μL perfused through the heart) is reported as “the limbs were bluish in color to the extent of being visible by naked eyes”. For the same compound, the “fluorescence of frozen section” value in the data set on large intestine (approximately 6 μm frozen section) is recorded as “strong fluorescence in the lumen”. For the same compound, the “confocal observation of the tissue” value with large intestine (area 60 μm deep from the luminal surface) was “the lamina propria mucosae could be observed clear”. Also, the observation capability result in the data set with large intestine (frozen section under fluorescence) was “high”. In data set [1], the “can be excited at, for example” value amounted to 641 nm; the fluorescence detected at was 654 nm; the maximum absorption wavelength came to 639 nm; the maximum excitation wavelength was 641 nm. Besides, the maximum fluorescence wavelength in data set [1] is reported as 654 nm.
